Results as given in US4387106A, “Method of treating atherosclerosis with di(aralkyl)ureas and di(aralkyl)thioureas” (American Cyanamid Company, priority 1982, dated 1983).

Tests used:
[1] = tested on: Cholesterol absorption; settings: po, 336 h
Procedure: Inhibition of cholesterol absorption was determined by feeding male Sprague-dawley rats weighing 150-170 g. a 1% cholesterol:0.5% cholic acid diet for 2 weeks. The diet also contained compounds being tested at doses of between 0.01% and 0.1% of the diet. […] Feces were collected for each 24 hour period for the remaining 5 days during which the rats were maintained on the 1% cholesterol:0.5% cholic acid plus test compound diet. Fecal ^14 C-neutral sterols were extracted with petroleum ether from saponified feces by the method of Grundy, S. M. et. al., J. Lipid Res., 6, 397 (1965) and counted in a scintillation counter. Acidic sterols (bile acids) were extracted by acidifying the saponified feces and extracting in chloroform:methanol (2:1) and counting the chloroform phase in a scintillation counter. Total extraction of radioactivity (98-100%) from saponified feces is realized by this procedure.
The effect of test compounds on cholesterol absorption was determined by:
1. increase in excreted ^14 C-neutral sterol
2. decrease in excreted ^14 C-acidic sterol
3. decrease in ^14 C-cholesterol or ^14 C-cholesteryl ester in the liver.
4. decrease in ^14 C-cholesterol or ^14 C-cholesteryl ester in the serum.

[2] = molecular target: T1, fatty acyl CoA:cholesterol acyl transferase (ACAT) (Rattus norvegicus, UniProt O70536); assay: In vitro inhibition of fatty acyl CoA:cholesterol acyl transferase (ACAT), rat adrenal supernatant; format: biochemical; settings: final concentration 5.2 μg./ml., pH 7.4, 37° C., oleoyl CoA (14C)
T1 construct: The supernatant, containing the microsomal fraction, served as the source of the cholesterol-esterifying enzyme; from tissue; host or cells: rat adrenals, homogenate, 1000 x g supernatant containing the microsomal fraction
T1 sequence (O70536 1-545): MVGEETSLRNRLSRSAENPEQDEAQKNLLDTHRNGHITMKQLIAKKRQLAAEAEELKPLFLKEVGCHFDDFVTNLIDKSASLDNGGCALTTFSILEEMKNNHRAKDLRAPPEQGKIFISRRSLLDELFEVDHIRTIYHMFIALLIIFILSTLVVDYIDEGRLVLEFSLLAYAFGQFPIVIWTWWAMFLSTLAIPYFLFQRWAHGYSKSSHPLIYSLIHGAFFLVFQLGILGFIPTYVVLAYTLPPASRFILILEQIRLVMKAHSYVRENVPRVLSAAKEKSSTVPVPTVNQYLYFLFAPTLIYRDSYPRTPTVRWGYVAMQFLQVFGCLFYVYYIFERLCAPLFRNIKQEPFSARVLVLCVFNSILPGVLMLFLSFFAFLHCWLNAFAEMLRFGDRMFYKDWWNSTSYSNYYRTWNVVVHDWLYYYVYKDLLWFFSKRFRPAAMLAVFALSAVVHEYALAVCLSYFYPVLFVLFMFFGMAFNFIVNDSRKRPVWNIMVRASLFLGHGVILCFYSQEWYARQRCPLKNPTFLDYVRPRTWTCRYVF
Procedure: The compounds were tested for their ability to inhibit ACAT according to the following procedure:
Rat adrenals were homogenized in 0.2 M monobasic potassium phosphate buffer, pH 7.4, and centrifuged at 1000 times gravity for 15 minutes at 5° C. The supernatant, containing the microsomal fraction, served as the source of the cholesterol-esterifying enzyme, fatty acyl CoA:cholesterol acyl transferase (ACAT). A mixture comprising 50 parts of adrenal supernatant, 10 parts of albumin (BSA) (50 mg./ml.), 3 parts of test compound (final concentration 5.2 μg./ml.) and 500 parts of buffer was preincubated at 37° C. for 10 minutes. After treatment with 20 parts of oleoyl CoA (^14 C--0.4 μCi) the mixture was incubated at 37° C. for 10 minutes. A control mixture, omitting the test compound, was prepared and treated in the same manner. The lipids from the incubation mixture were extracted into an organic solvent and separated by thin-layer chromatography. The cholesteryl ester fraction was counted in a scintillation counter.

[3] = tested on: Cholesterol absorption; settings: po, 0.03 % of diet, 336 h
Procedure: Compounds were tested in vitro for their ability to inhibit the enzyme fatty acyl CoA:cholesterol acyl transferase (ACAT) and in vivo for serum hypolipidemic activity as measured by their ability to inhibit lipid absorption in rats.
Inhibition of Cholesterol absorption was determined by feeding male Sprague-Dawley rats, weighing 150-170 g., A 1% cholesterol:0.5% cholic acid diet for 2 weeks. The diet also contained compounds being tested at a dose of 0.03% of the diet. Control rats were fed the same diet without any compound. At the end of the test, the rats were sacrificed by decapitation. Blood is collected, centrifuged at 1.5 kg times gravity for 10 minutes at 4° C., and the serum is then analyzed for cholesterol and triglycerides enzymatically by the method of Trinder, P., Analyst, 77, 321 (1952) on a Centrifichem 400 Analyzer. Livers are removed, a 0.4 g sample is taken from the center of the large lobe, and the sample is subjected to saponification using 25% saturated potassium hydroxide in ethanol. The resulting neutral sterols are extracted with petroleum ether and extract analyzed for cholesterol. The effectiveness of the compound in inhibiting cholesterol absorption is measured by the lowering of either serum cholesterol or liver cholesterol relative the values for control rats.

Structure (SMILES) | Result (inhibition of cholesterol absorption, 14C-sterol excretion) [1] | inhibition at 5.2 µg/mL [2] [%] | Result (inhibition of cholesterol absorption: lowering of serum or liver cholesterol relative to control) [3]
Cc1ccc(NC(=O)N(Cc2ccccc2)Cc2ccccc2)cc1C [1,1-Dibenzyl-3-(3,4-dimethylphenyl)urea] | Active | 71.8 | Active
O=C(Nc1ccc(Cl)cc1C(F)(F)F)N(Cc1ccccc1)Cc1ccccc1 [1,1-Dibenzyl-3-(4-chloro-2-trifluoromethylphenyl)urea] | Active | 81.8 | Active
Cc1ccc(NC(=S)N(Cc2ccccc2)Cc2ccccc2)c(C)c1 [1,1-Dibenzyl-3-(2,4-dimethylphenyl)thiourea] |  | 78.7 | Active
Cc1ccc(NC(=O)N(Cc2ccccc2)Cc2ccccc2)cc1Cl [1,1-Dibenzyl-3-(3-chloro-4-methylphenyl)urea] | Active | 94 | Active
CCCCc1ccc(NC(=O)N(Cc2ccccc2)Cc2ccccc2)cc1 [1,1-Dibenzyl-3-(4-n-butylphenyl)urea] |  | 91.3 | Active
Cc1ccc(NC(=O)N(Cc2ccccc2)Cc2ccccc2)c(C)c1 [1,1-Dibenzyl-3-(2,4-dimethylphenyl)urea] | Active | 89.9 | Active
O=C(Nc1cccc(Br)c1)N(Cc1ccccc1)Cc1ccccc1 [1,1-Dibenzyl-3-(3-bromophenyl)urea] |  | 91.9 | Active
Cc1cc(C)c(NC(=O)N(Cc2ccccc2)Cc2ccccc2)c(C)c1 [1,1-Dibenzyl-3-(2,4,6-trimethylphenyl)urea] | Active | 36.9 | Active
O=C(Nc1ccc(Oc2ccccc2)cc1)N(Cc1ccccc1)Cc1ccccc1 [1,1-Dibenzyl-3-(4-phenoxyphenyl)urea] |  | 94.3 | Active
Cc1cc(C)c(NC(=O)N(Cc2ccccc2)Cc2ccccc2)cc1C [1,1-Dibenzyl-3-(2,4,5-trimethylphenyl)urea] |  | 69.1 | Active
COc1ccc(C)cc1NC(=O)N(Cc1ccccc1)Cc1ccccc1 [1,1-Dibenzyl-3-(2-methoxy-5-methylphenyl)urea] | Active | 87.8 | Active
Cc1cccc(NC(=O)N(Cc2ccccc2)Cc2ccccc2)c1C [1,1-Dibenzyl-3-(2,3-dimethylphenyl)urea] | Active | 88.1 | Active
Cc1cc(Cl)ccc1NC(=O)N(Cc1ccccc1)Cc1ccccc1 [1,1-Dibenzyl-3-(4-chloro-2-methylphenyl)urea] | Active | 62.7 | Active
O=C(Nc1ccccc1C(F)(F)F)N(Cc1ccccc1)Cc1ccccc1 [1,1-Dibenzyl-3-(2-trifluoromethylphenyl)urea] |  | 68.4 | Active
Cc1ccc(Cl)cc1NC(=O)N(Cc1ccccc1)Cc1ccccc1 [1,1-Dibenzyl-3-(5-chloro-2-methylphenyl)urea] | Active | 71.3 | Active
